We go through two molecules from patent US20170360743A1, “BIFLAVONE COMPOUND AND USES THEREOF FOR TREATING CANCERS AND PREPARING DRUGS” (FUJIAN MEDICAL UNIVERSITY, priority 2015, published 2017).

Values after ≈ are worked out from the molar mass of the structure shown.

Data set [1] has as its system non-small cell lung cancer cell line (A549). The experiment in a line: MTT inhibition of A549 cancer cell line. Particulars: Homo sapiens, A549, 72 hs. It is filed as cell-based. How it is done:
(§1) 1. Preparing test solutions: taking a certain amount of compounds 5, using dimethyl sulfoxide (DMSO) to dissolve the compound, and using cell growth medium for each corresponding cell line to dilute the solution to 5 concentrations of test solutions: 500, 250, 125, 62.5, 31.25 μg/mL. The positive control doxorubicin were diluted with cell growth medium for each corresponding cell line to 3 concentrations: 5, 2.5, 1.25 μM. Seven human cancer cell lines, including five adhesive cancer cell lines: human gastric cancer cell line (MKN-45), non-small cell lung cancer cell line (A549), nasopharyngeal carcinoma cell line (CNE1, CNE2), large cell lung cancer cell line (PC-9); and two suspensive cancer cell lines: human promyelocytic leukemia cell line (HL60), human chronic myelogenous leukemia cell line (K562). All seven human cancer cell lines are purchased from Shanghai Chinese Academy of Sciences Cell Bank and stored in School of Medicine of Fujian Medical University. The aforementioned seven cancer cell lines were recovered from the liquid nitrogen, and then cultured in 25 cm^2 flasks under the corresponding culture conditions of each cell lines (see Table 2). […] OD was measured with microplate reader under wavelength of 492 nm and then the inhibition rate was calculated. […]

The subject of data set [2] is large cell lung cancer cell line (PC-9). The data set can be described thus: MTT inhibition of PC-9 cancer cell line. It is filed as cell-based. Particulars: Homo sapiens, PC-9, 72 hs. How it is done: as §1
In data set [3] the test system is human chronic myelogenous leukemia cell line (K562). The experiment in a line: MTT inhibition of K562 cancer cell line. Type of data set: cell-based. Particulars: K562, 72 hs. How it is done:
as §1

In data set [4] the test system is human promyelocytic leukemia cell line (HL60). The data set can be described thus: MTT inhibition of HL60 cancer cell line. Type of data set: cell-based. Particulars: HL-60, HL60, 72 hs. How it is done: as §1
Data set [5] concerns nasopharyngeal carcinoma cell line (CNE1). The data set can be described thus: MTT inhibition of CNE1 cancer cell line. Type of data set: cell-based. Particulars: Homo sapiens, CNE1, 72 hs. How it is done: as §1
Data set [6] relates to nasopharyngeal carcinoma cell line (CNE2). The data set can be described thus: MTT inhibition of CNE2 cancer cell line. It is filed as cell-based. Particulars: Homo sapiens, CNE-2, CNE2, 72 hs. How it is done: as §1
Data set [7] relates to human gastric cancer cell line (MKN-45). The experiment in a line: MTT inhibition of MKN-45 cancer cell line. It is filed as cell-based. The note with it: MKN-45, 72 hs. How it is done: as §1
Data set [8] in a line: Solubility of Compound 5 when preparing the test solution. Type of data set: physicochemical. From the text: Its water solution (or saline solution) was acidic. […] Suitable co-solvents were selected to enhance the solubility. Studied the solubility enhancing effects of Tween-80 (final concentration 0.02-2%, v/v), PEG-400 (final concentration <40%, v/v), 1, 2-propanediol (final concentration <40%, v/v), glycerol (final concentration <30%, v/v), and CMC-Na (final concentration 1-5%, w/v). […] Considering formulations comprising tween compounds may lead to hemolysis, PEG-400 was selected as the co-solvent.

The test system of data set [9] is A549 cells xenograft. The experiment in a line: In vivo anti-tumor activity, A549 nude mouse model. The note with it: for Weights (g) After treatment: body weight after treatment; for Weights (g) Before treatment: body weight before treatment.
Protocol: The nude mice were fed in the SPF-system, six mice in a cage. The nude mice were provided with standard food and water, maintained in the light and dark cycling conditions (12/12 h), room temperature 25±2° C., humidity 50±10%. The water and beddings were steriled and changed every day. The mice were fed in the maintenance room for a week before the experiments.
Accurately weighed a certain amount of injection grade doxorubicin powder, added saline to obtain a 0.4 mg/mL test solution. The test solution is prepared avoiding light and handy for use.
Human non-small cell lung cancer cell line A549 was resuscitated. The ratio of FBS in the culture was increased from 6% to 10%, so as to make the cells proliferated rapidly. When the cell coverage in the culture flask reached 80% or so (i.e., logarithmic growth phase), the A549 cells were digested and suspended. Using autoclaved PBS to wash the cells twice to remove the residual culture medium. And then the cells were resuspended with PBS and adjusted the cells concentration to 1×10^7 cells/mL.
After the mice accustomed to the environment, under steriled condition, using disposable syringe to transfer A549 cells (1×10^7/mL) and subcutaneously inoculated in the flank of nude mice. 0.2 ml of suspension of A549 cells was injected into each nude mice and the procedure was finished within 30 min. The rest of the cells were subjected to culture and observed for any contamination, so as to provide information on whether the construction of animal model was success.
After the inoculation of cancer cells was success and the volume of xenograft tumors reached 50 to 100 mm^3, the animals were divided randomly into 5 groups (high dosage, middle dosage, low dosage, positive control, blank control) and each group comprised 6 mice.
The animals were administered once per day. The injection volume was adjusted according to the weight measured. The animals were administered for 12 days. Positive control group was injected with 2 mg/kg Doxorubicin. The animals were administered once every 3 days, and 4 times in the 12-day period. Blank control group was injected with saline solution.
During the administration period, the living and mental state of the mice were observed every day. Body weight and tumor size was measured and recorded. The tumor size was measured using Vernier caliper and tumor volumes were calculated using the formula: V (mm^3)=½×L (mm)×W^2 (mm^2) in which L is the length and W is the width of the solid tumor nodules.
24 hrs after the last administration, the nude mice were sacrificed and the tumor was removed for volume measurements. Tumor inhibition rate was calculated.
Each mouse was weighted 24 hours after administration. In the end of the experiment, the mice were sacrifice by treating at the neck area. The tumor was removed for volume measurements and took photos.
The experimental data were analyzed by SPSS 13.0 software Comparison between groups were carried out by one-way ANOVA or two-sample comparison of U-test. Results were provided in mean±SE, difference with P<0.05 was deemed significant.
[10] abbreviates: High dosage 30 mg/kg tail vein once per day, 12 days.
[11] abbreviates: Low dosage 5 mg/kg tail vein once per day, 12 days.
Where [12] appears, read: Middle dosage 15 mg/kg tail vein once per day, 12 days.
The mark [13] stands for this setting: 2 mg/kg tail vein once every 3 days, 4 times in 12 days.

For orientation: IC50 means the concentration that inhibits the measured activity by half. A higher IC50 goes with a need for much substance.

Consider `O=c1cc(-c2ccc(Oc3c(-c4ccc(O)cc4)oc4cc(O)cc(O)c4c3=O)cc2)oc2cc(O)cc(O)c12` [Compound 5, 3-(4-(5,7-dihydroxy-4-oxo-4H-benzopyran-2-yl)phenoxyl)-5,7-dihydroxy-2-(4-hydroxyphenyl)-4H-benzopyran-4-one], for which the half-maximal inhibitory concentration (IC50) in data set [1] was found to be 13.2 ± 0.91 µg/mL (≈ 24.5 µM); in [2], 21.8 ± 1.3 µg/mL (≈ 40.5 µM); in data set [3], 16.8 ± 2.8 µg/mL (≈ 31.2 µM); in data set [4] it was 18.3 ± 3 µg/mL (≈ 34 µM); in data set [5], 49.3 ± 2.8 µg/mL (≈ 91.5 µM); in [6], 13.3 ± 2.6 µg/mL (≈ 24.7 µM). The molecule further had a concentration for half-maximal inhibition (IC50) in data set [7] of 33.2 ± 3.1 µg/mL (≈ 61.7 µM). Further, the “solubility at injection acceptable pH” value in data set [8] (pH adjusted to 6.0-8.0) is given as “still quite low”. The solubility in water entry in [8] (water) is “poorly dissolved in water”. The “toxicity in nude mice” value in data set [9] (5-30 mg/kg tail vein once per day, 12 days) was “low”. Also, the figures for the “Tumor Weight-inhibitions(%)” value in data set [9] (setting [10]), in [9] (setting [11]) and in [9] (setting [12]) were 62.2±21.3%, 36.9±6.1% and 43.7±19.8%, respectively. For the same molecule, the “Tumor weights” value in data set [9] (setting [10]) worked out at 0.193 ± 0.056 g; in data set [9] (setting [11]) it was 0.305 ± 0.039 g; in data set [9] (setting [12]), 0.287 ± 0.101 g. Moreover, the “Weights (g) After treatment” value is on record as 24.4 ± 1.6 g in data set [9] (setting [10]), 23.4 ± 0.7 g in data set [9] (setting [11]) and 24.9 ± 1.0 g in data set [9] (setting [12]). Further, the “Weights (g) Before treatment” value worked out at 22.4 ± 1.2 g in data set [9] (setting [10]), 22.8 ± 0.8 g in data set [9] (setting [11]) and 23.9 ± 1.5 g in [9] (setting [12]).
`COc1cccc2c1C(=O)c1c(O)c3c(c(O)c1C2=O)C[C@@](O)(C(=O)CO)C[C@@H]3O[C@H]1C[C@H](N)[C@H](O)[C@H](C)O1` [Doxorubicin, reference compound]: in data set [9] (setting [13]), the “Tumor Weight-inhibitions(%)” value came out at 56.8±5.6%, the “Tumor weights” value was determined as 0.220 ± 0.037 g, the “Weights (g) After treatment” value was 23.6 ± 1.1 g and the “Weights (g) Before treatment” value stood at 22.7 ± 1.9 g.
